This passage reports IC50 results from patent US20260334439A1, “BCAT2 INHIBITORS” (Agios Pharmaceuticals, Inc., priority 2023, published 2026).

pIC50: −log10 of the molar value.

The assay concerns the target T1, BCAT2 (Homo sapiens, UniProt O15382).
T1 sequence (O15382 28-392): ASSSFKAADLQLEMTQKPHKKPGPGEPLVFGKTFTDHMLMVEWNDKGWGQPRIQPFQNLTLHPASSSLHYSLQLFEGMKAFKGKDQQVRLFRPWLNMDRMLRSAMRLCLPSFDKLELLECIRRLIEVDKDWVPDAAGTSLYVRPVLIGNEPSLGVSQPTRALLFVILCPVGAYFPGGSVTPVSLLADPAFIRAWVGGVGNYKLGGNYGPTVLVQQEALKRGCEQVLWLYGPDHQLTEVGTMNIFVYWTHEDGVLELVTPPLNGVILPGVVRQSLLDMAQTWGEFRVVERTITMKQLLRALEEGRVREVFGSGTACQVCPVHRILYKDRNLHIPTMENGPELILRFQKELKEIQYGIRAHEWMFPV
The experiment in a line: BCAT2 in vitro enzyme inhibition assay (hBCAT2, glutamate dehydrogenase/diaphorase/resazurin coupled fluorescence read). In kind it is biochemical. The note with it: hBCAT2, 1 h preincubation at 25° C., one hour reaction; average where tested multiple times. The method, boiled down:
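hBCAT2 (0.33 μg/mL in mix) preincubated 1 h at 25 °C with compound (top 100 μM, 3-fold, 10 points) in Tris pH 8.0/NaCl/BSA; substrate mix added (L-leucine, α-ketoglutarate, GDH, NAD, diaphorase, resazurin), quenched with SDS after 1 h, fluorescence Ex 540/Em 590; duplicates, repeat tests averaged.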
`CN1C[C@H](NC(=O)c2cc(Cl)ccn2)C[C@H](n2c(-c3ccccc3OCCO)nc3cnc(-n4nccn4)cc32)C1` [Example 157, 4-chloro-N-((3R,5S)-5-(2-(2-(2-hydroxyethoxy)phenyl)-6-(2H-1,2,3-triazol-2-yl)-1H-imidazo[4,5-c]pyridin-1-yl)-1-methylpiperidin-3-yl)picolinamide] had a negative-log IC50 (pIC50) of more than 7.00.
As for `N#Cc1ccccc1-c1nc2cnc(-c3nc(C(F)(F)F)co3)cc2n1[C@@H]1CCC[C@H](NC(=O)c2cc(F)ccc2F)C1` [Example 101, N-((1S,3R)-3-(2-(2-cyanophenyl)-6-(4-(trifluoromethyl)oxazol-2-yl)-1H-imidazo[4,5-c]pyridin-1-yl)cyclohexyl)-2,5-difluorobenzamide], the figure is more than 7.00.
As for `CO[C@H]1C[C@H](NC(=O)c2cc(F)ccc2F)C[C@H](n2c(-c3ccccc3OCCO)nc3cnc(-c4ncco4)cc32)C1` [Example 123, 2,5-difluoro-N-((1R,3S,5S)-3-(2-(2-(2-hydroxyethoxy)phenyl)-6-(oxazol-2-yl)-1H-imidazo[4,5-c]pyridin-1-yl)-5-methoxycyclohexyl)benzamide], the figure is more than 7.00.
The compound `CC(Oc1ccccc1-c1nc2cnc(-c3nc[nH]n3)cc2n1[C@@H]1CCC[C@H](NC(=O)c2cc(Cl)ccn2)C1)C(F)(F)F` (stereo partly drawn) [Example 92, N-((1S,3R)-3-(6-(1H-1,2,4-triazol-3-yl)-2-(2-((1,1,1-trifluoropropan-2-yl)oxy)phenyl)-1H-imidazo[4,5-c]pyridin-1-yl)cyclohexyl)-4-chloropicolinamide] gave a negative-log IC50 (pIC50) of less than 6.00.
Then `COc1ccc(Cl)cc1C(=O)N[C@@H]1C[C@@H](OC)C[C@H](n2c(-c3ccccc3F)nc3cnc(-c4nc[nH]n4)cc32)C1` [Example 107, 5-chloro-N-((1S,3R,5R)-3-(2-(2-fluorophenyl)-6-(1H-1,2,4-triazol-3-yl)-1H-imidazo[4,5-c]pyridin-1-yl)-5-methoxycyclohexyl)-2-methoxybenzamide], with less than 6.00.
Then `CN1C[C@@H](NC(=O)c2cc(F)ccc2F)C[C@@H](n2c(-c3ccccc3OCCO)nc3cnc(-n4nccn4)cc32)C1` [Example 154, 2,5-difluoro-N-((3S,5R)-5-(2-(2-(2-hydroxyethoxy)phenyl)-6-(2H-1,2,3-triazol-2-yl)-1H-imidazo[4,5-c]pyridin-1-yl)-1-methylpiperidin-3-yl)benzamide], with less than 6.00.
As for `CN1C[C@@H](NC(=O)c2cc(Cl)ccn2)C[C@@H](n2c(-c3ccccc3OC(F)F)nc3cnc(-c4nc[nH]n4)cc32)C1` [compound 142], the figure is 6.30 to 7.00.
For `CCN1C[C@H](NC(=O)c2cc(F)ccn2)C[C@H](n2c(-c3ccccc3F)nc3cnc(-c4nc[nH]n4)cc32)C1` [Example 148, N-((3R,5S)-1-ethyl-5-(2-(2-fluorophenyl)-6-(1H-1,2,4-triazol-3-yl)-1H-imidazo[4,5-c]pyridin-1-yl)piperidin-3-yl)-4-fluoropicolinamide], the pIC50 is more than 7.00.
Then `O=C(N[C@@H]1C[C@H](n2c(-c3ccccc3OCCO)nc3ccc(-c4nc[nH]n4)cc32)CC(F)(F)C1)c1cc(F)ccn1` [Example 231, N-((1R,5S)-3,3-difluoro-5-(2-(2-(2-hydroxyethoxy)phenyl)-6-(1H-1,2,4-triazol-3-yl)-1H-benzo[d]imidazol-1-yl)cyclohexyl)-4-fluoropicolinamide], with more than 7.00.
`CN1C[C@@H](NC(=O)c2cc(F)ccn2)C[C@@H](n2c(-c3ccccc3OCCO)nc3ccc(-c4ncccn4)cc32)C1` [Example 237, 4-fluoro-N-((3S,5R)-5-(2-(2-(2-hydroxyethoxy)phenyl)-6-(pyr-imidin-2-yl)-1H-benzo[d]imid-azol-1-yl)-1-methylpiperidin-3-yl)picolinamide] showed a negative logarithm of the IC50 (pIC50) of less than 6.00.
As for `CO[C@@H]1C[C@@H](NC(=O)c2cc(F)ccn2)C[C@@H](n2c(-c3ccccc3F)nc3ccc(-c4nc[nH]n4)cc32)C1` [Example 220, 4-fluoro-N-((1R,3S,5S)-3-(2-(2-fluorophenyl)-6-(1H-1,2,4-triazol-3-yl)-1H-benzo[d]imid-azol-1-yl)-5-methoxycyclohex-yl)picolinamide], the figure is less than 6.00; as for `O=C(N[C@H]1CCC[C@@H](n2c(-c3ncccc3OC(F)F)nc3cnc(-c4ncn[nH]4)cc32)C1)c1cc(O)ccc1Cl` [compound 97], more than 7.00.
Then `CN1C[C@@H](N2Cc3ccc(F)cc3C2=O)C[C@@H](n2c(-c3ccccc3OCCO)nc3cnc(-c4nc[nH]n4)cc32)C1` [Example 198, 6-fluoro-2-((3S,5R)-5-(2-(2-(2-hydroxyethoxy)phenyl)-6-(1H-1,2,4-triazol-3-yl)-1H-imidazo[4,5-c]pyridin-1-yl)-1-methylpiperidin-3-yl)isoindolin-1-one], with 6.30 to 7.00.
`O=C(N[C@H]1CCC[C@@H](n2c(-c3ccccc3F)nc3cnc(-c4nc[nH]n4)cc32)C1)c1cc(Cl)ccc1OC(F)F` [compound 50] showed a pIC50 of more than 7.00.
With `CN1C[C@@H](NC(=O)c2cc(Cl)ccn2)C[C@@H](n2c(-c3ncccc3F)nc3cnc(-c4nc[nH]n4)cc32)C1` [Example 131, 4-chloro-N-((3S,5R)-5-(2-(3-fluoropyridin-2-yl)-6-(1H-1,2,4-triazol-3-yl)-1H-imidazo[4,5-c]pyridin-1-yl)-1-methylpiperidin-3-yl)picolinamide], the pIC50 is less than 6.00.
Then `CN1CC(NC(=O)c2cc(F)ccc2F)CC(n2c(-c3ncccc3F)nc3cnc(-c4nc[nH]n4)cc32)C1` (centres unmarked) [Example 146, 2,5-difluoro-N-(5-(2-(3-fluoropyridin-2-yl)-6-(1H-1,2,4-triazol-3-yl)-1H-imidazo[4,5-c]pyridin-1-yl)-1-methylpiperidin-3-yl)benzamide], with 6.30 to 7.00; and `CN1C[C@@H](NC(=O)c2cc(Cl)ccn2)C[C@@H](n2c(-c3ccccc3OCCO)nc3cnc(-c4ncco4)cc32)C1` [Example 160, 4-chloro-N-((3S,5R)-5-(2-(2-(2-hydroxyethoxy)phenyl)-6-(oxazol-2-yl)-1H-imidazo[4,5-c]pyridin-1-yl)-1-methylpiperidin-3-yl)picolinamide], with less than 6.00.
The compound `CN1C[C@H](NC(=O)c2cc(Cl)ccn2)C[C@H](n2c(-c3ccccc3OCCO)nc3cnc(-c4ncco4)cc32)C1` [Example 161, 4-chloro-N-((3R,5S)-5-(2-(2-(2-hydroxyethoxy)phenyl)-6-(oxazol-2-yl)-1H-imidazo[4,5-c]pyridin-1-yl)-1-methylpiperidin-3-yl)picolinamide] showed a negative-log IC50 (pIC50) of more than 7.00.
Regarding `N#Cc1ccccc1-c1nc2cnc(-c3nc(C(F)(F)F)co3)cc2n1[C@@H]1CCC[C@H](NC(=O)c2cc(F)ccn2)C1` [Example 99, N-((1S,3R)-3-(2-(2-cyanophenyl)-6-(4-(trifluoromethyl)oxazol-2-yl)-1H-imidazo[4,5-c]pyridin-1-yl)cyclohexyl)-4-fluoropicolinamide], the pIC50 was more than 7.00.
Then `O=C(N[C@H]1CCC[C@@H](n2c(-c3ccccc3F)nc3cnc(-c4nc[nH]n4)cc32)[C@@H]1O)c1cc(Cl)ccn1` [Example 103, 4-chloro-N-((1S,2R,3R)-3-(2-(2-fluorophenyl)-6-(1H-1,2,4-triazol-3-yl)-1H-imidazo[4,5-c]pyridin-1-yl)-2-hydroxycyclohexyl)picolinamide], with more than 7.00; and `COc1ccc(C(F)(F)F)cc1C(=O)N[C@H]1CCC[C@@H](n2c(-c3ccccc3F)nc3cnc(-c4nc[nH]n4)cc32)C1` [Example 9, N-((1S,3R)-3-(2-(2-fluorophenyl)-6-(1H-1,2,4-triazol-3-yl)-1H-imidazo[4,5-c]pyridin-1-yl)cyclohexyl)-2-methoxy-5-(trifluoromethyl)benzamide], with more than 7.00; and `CS(=O)(=O)c1ccc(Cl)cc1C(=O)N[C@H]1CCC[C@@H](n2c(-c3ccccc3F)nc3cnc(-c4nc[nH]n4)cc32)C1` [Example 12, 5-chloro-N-((1S,3R)-3-(2-(2-fluorophenyl)-6-(1H-1,2,4-triazol-3-yl)-1H-imidazo[4,5-c]pyridin-1-yl)cyclohexyl)-2-(methylsulfonyl)benzamide], with less than 6.00.
As for `CC(C)(C#N)Cc1nc2cnc(-c3nc[nH]n3)cc2n1[C@@H]1CCC[C@H](NC(=O)c2cc(Cl)ccn2)C1` [Example 43, 4-chloro-N-((1S,3R)-3-(2-(2-cyano-2-methylpropyl)-6-(1H-1,2,4-triazol-3-yl)-1H-imidazo[4,5-c]pyridin-1-yl)cyclohexyl)picolinamide], the figure is 6.00 to 6.30; as for `Nc1ccc(Cl)cc1C(=O)N[C@H]1CCC[C@@H](n2c(-c3ccccc3F)nc3cnc(-c4nc[nH]n4)cc32)C1` [Example 41, 2-amino-5-chloro-N-((1S,3R)-3-(2-(2-fluorophenyl)-6-(1H-1,2,4-triazol-3-yl)-1H-imidazo[4,5-c]pyridin-1-yl)cyclohexyl)benzamide], 6.30 to 7.00; as for `CC(C)OCc1nc2cnc(-c3nc[nH]n3)cc2n1[C@@H]1CCC[C@H](NC(=O)c2cc(Cl)ccn2)C1` [Example 20, 4-chloro-N-((1S,3R)-3-(2-(isopropoxymethyl)-6-(1H-1,2,4-triazol-3-yl)-1H-imidazo[4,5-c]pyridin-1-yl)cyclohexyl)picolinamide], less than 6.00.
Then `CO[C@H]1C[C@H](NC(=O)c2cc(Cl)ccc2F)C[C@H](n2c(-c3ccccc3OCCO)nc3cnc(-c4ncco4)cc32)C1` [Example 124, 5-chloro-2-fluoro-N-((1R,3S,5S)-3-(2-(2-(2-hydroxyethoxy)phenyl)-6-(oxazol-2-yl)-1H-imidazo[4,5-c]pyridin-1-yl)-5-methoxycyclohexyl)benzamide], with more than 7.00.
